Measured values published in ChEMBL document CHEMBL1201862, “PubChem BioAssay data set” (2004).
Calls of active or inactive are those of the source.

Experiments:
Cytochrome P450 2C9 = Cytochrome P450 2C9 (Homo sapiens, UniProt P11712)
[1] = biological target: T1, Ubiquitin-conjugating enzyme E2 N (Homo sapiens, UniProt P61088); format: functional;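 note: Dose-response confirmation in a TR-FRET assay detecting UBC13-driven polyubiquitin chain formation, inhibition measured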
T1 sequence (P61088 whole entry): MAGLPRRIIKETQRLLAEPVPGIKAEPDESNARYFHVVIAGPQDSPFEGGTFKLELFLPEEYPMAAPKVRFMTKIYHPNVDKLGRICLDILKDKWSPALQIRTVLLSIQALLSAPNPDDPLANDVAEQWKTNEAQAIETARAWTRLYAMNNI

Cytochrome P450 2C19 = Cytochrome P450 2C19 (Homo sapiens, UniProt P33261); experiment: Cytochrome panel assay with activity outcomes. Panel member name: p450-cyp2c19 Compounds with AC50 equal or less than 10 uM are considered active; format: functional; conditions: read-out: AC50
Sequence of Cytochrome P450 2C19 (P33261 whole entry): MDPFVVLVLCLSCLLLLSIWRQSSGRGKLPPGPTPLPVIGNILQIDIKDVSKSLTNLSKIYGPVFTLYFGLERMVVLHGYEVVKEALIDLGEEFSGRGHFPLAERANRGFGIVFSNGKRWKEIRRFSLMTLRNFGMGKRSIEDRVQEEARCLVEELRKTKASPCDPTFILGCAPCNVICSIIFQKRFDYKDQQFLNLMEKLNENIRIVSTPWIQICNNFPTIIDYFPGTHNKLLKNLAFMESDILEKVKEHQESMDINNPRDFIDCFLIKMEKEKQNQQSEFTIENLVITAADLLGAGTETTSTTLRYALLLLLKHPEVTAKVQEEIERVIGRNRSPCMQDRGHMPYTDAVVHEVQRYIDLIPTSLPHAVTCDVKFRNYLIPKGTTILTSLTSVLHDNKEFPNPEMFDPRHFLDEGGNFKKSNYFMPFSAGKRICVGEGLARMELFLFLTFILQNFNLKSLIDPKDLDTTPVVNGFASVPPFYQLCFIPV

Cytochrome P450 1A2 = biological target: T2, Cytochrome P450 1A2 (Homo sapiens, UniProt P05177);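 note: PubChem cytochrome P450 panel assay, CYP1A2 panel member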
T2 sequence (P05177 whole entry): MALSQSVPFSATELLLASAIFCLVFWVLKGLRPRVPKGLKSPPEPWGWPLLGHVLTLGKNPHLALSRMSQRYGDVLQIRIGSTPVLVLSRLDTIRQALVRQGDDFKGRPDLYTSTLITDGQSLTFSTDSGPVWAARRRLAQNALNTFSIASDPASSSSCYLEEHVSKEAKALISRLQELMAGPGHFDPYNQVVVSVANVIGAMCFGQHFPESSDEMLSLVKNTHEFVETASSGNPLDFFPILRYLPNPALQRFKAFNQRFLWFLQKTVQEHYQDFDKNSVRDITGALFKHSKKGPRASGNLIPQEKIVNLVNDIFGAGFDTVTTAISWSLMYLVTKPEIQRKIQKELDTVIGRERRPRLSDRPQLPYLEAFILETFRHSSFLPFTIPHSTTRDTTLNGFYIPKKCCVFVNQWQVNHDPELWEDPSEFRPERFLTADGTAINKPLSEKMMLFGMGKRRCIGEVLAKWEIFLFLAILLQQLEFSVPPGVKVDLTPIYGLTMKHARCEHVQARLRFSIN

[2] = cytotoxicity toward NIH3T3 fibroblasts, dose response, counter-screen, cell-based, ATP luminescence, mouse fibroblasts (AID 2010); format: functional;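 note: cells exposed to compound for about 90 hours before reading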
[3] = inhibitors of intracellular T. cruzi replication, confirmation, NIH3T3 host cells, beta-gal luminescence (AID 2044); format: functional, cell-based;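 note: intracellular parasites grown in NIH/3T3 mouse fibroblasts as host cells; luminescent beta-galactosidase reporter signal from transgenic T. cruzi replicating inside host cells; inhibitors lower the luminescence signal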
[4] = biological target: T3, Short transient receptor potential channel 4 (Mus musculus, UniProt Q9QUQ5); experiment: mouse TRPC4 channel inhibitors, dose response, cell-based, HEK293 TRPC4/mu-opioid, Fluo-4 calcium (AID 434942); format: functional;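 note: potency of inhibitors blocking the TRPC4 calcium response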
T3 sequence (Q9QUQ5 whole entry): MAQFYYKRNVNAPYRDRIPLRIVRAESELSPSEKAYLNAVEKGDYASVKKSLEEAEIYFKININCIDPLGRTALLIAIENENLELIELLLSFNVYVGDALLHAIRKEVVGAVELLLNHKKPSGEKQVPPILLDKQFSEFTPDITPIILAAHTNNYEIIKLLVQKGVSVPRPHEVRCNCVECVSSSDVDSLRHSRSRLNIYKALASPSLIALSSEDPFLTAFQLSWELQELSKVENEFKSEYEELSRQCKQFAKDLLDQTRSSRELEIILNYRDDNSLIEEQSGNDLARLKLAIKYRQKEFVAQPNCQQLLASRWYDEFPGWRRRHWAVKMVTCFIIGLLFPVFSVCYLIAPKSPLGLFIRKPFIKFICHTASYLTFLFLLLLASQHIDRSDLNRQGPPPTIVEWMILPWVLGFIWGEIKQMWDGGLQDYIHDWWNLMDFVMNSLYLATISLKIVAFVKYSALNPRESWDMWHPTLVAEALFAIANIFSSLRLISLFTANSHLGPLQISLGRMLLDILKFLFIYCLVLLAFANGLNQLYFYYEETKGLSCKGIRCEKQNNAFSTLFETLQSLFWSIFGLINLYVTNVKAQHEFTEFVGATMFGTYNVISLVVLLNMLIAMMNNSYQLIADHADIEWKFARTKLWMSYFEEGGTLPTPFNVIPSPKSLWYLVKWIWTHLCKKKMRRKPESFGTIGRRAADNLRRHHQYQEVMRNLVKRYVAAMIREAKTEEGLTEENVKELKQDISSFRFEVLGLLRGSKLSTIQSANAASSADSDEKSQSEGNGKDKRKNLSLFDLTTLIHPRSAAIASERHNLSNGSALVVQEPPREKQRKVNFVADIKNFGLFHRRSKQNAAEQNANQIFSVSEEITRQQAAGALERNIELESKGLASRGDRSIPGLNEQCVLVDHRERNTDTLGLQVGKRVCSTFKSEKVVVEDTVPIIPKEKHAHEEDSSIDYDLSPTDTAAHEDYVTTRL

[5] = inhibitors of firefly luciferase expression or activity, dose response, H4 neuroglioma cells, luminescence (AID 1990); format: functional, cell-based
[6] = biological target: T4, DNA repair protein RAD52 homolog (Homo sapiens, UniProt P43351); format: functional, biochemical
T4 sequence (P43351 whole entry): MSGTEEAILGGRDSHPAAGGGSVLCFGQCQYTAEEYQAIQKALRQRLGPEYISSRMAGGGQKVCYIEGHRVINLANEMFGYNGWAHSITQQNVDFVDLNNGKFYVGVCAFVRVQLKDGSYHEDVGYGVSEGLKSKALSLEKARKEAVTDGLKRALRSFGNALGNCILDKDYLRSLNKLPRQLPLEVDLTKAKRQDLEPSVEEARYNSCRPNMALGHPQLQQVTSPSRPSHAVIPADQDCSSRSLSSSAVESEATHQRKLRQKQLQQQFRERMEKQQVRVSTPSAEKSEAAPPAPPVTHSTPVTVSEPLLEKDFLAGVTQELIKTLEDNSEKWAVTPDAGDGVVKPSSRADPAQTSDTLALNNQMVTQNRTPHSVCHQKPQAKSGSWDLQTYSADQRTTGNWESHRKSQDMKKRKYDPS

[7] = Luminescence Cell-Based Dose Response HTS to Identify Inhibitors of 5'UTR Stem-Loop Driven Prion Protein mRNA Translation in H4 Neuroglioblastoma Cells. [Related pubchem assays: 1827 (Project Summary), 1813 (Primary HTS)]; format: functional
[8] = inhibitors of SNCA 5'UTR-driven reporter translation, confirmation, H4 neuroglioma cells, luminescence (AID 1988); format: functional, cell-based
[9] = inhibitors of HIV Env-driven cell fusion, dose response, cherry-pick (AID 652057); format: functional, cell-based
[10] = inhibitors of clade B AD8 Env fusion, dose response, cell-based, cherry-pick (AID 652062); format: functional;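 note: luciferase signal from cell-cell fusion driven by HIV-1 clade B AD8 Env; potency is for inhibitors of fusion seen as a drop in luminescence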
[11] = ZM109 Env clade C HIV-1 fusion inhibitors, dose response, HeLa effector, CEM target cells, luciferase, cherry-pick (AID 652058); format: functional, cell-based
[12] = P. falciparum Dd2 growth inhibitors, dose response, SYBR Green, dry powder samples (AID 1159566); format: functional, cell-based;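 note: potency for growth inhibition with lower SYBR green DNA signal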
[13] = P. falciparum 3D7-ScDHODH growth inhibitors, dose response, SYBR Green, dry powder samples (AID 1159570); format: functional, cell-based;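 note: parasite growth measured after 72 hours of compound exposure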
[14] = P. falciparum ATP4 D1247Y mutant growth inhibitors, dose response, NITD609-resistant line, SYBR Green, dry powder (AID 1159571); format: functional, cell-based;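 note: parasites synchronized at ring stage by sorbitol before testing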
[15] = P. falciparum Dd2 growth inhibitors, dose response, SYBR Green, cherry-picked samples (AID 1159567); format: functional, cell-based
[16] = HepG2 cell cytotoxicity, dose response, cytotoxicity control, plate reader, dry powder samples (AID 1159569); format: functional, cell-based;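 note: inhibitor potency with signal falling toward the positive control level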
[17] = microbe, parasite or virus in culture; format: functional; conditions: Mycobacterium tuberculosis
[18] = Luminescence Cell-Based Dose Retest to Confirm Inhibitors of Cancer Stem Cells. [Related pubchem assays (depositor defined):AID2717, AID2721]; format: functional; conditions: Homo sapiens
Large T antigen = Large T antigen (Simian virus 40, UniProt P03070); format: functional, Betapolyomavirus macacae;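 note: Confirmatory-stage PubChem screen for compounds that inhibit SV40 T antigen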
Sequence of Large T antigen (P03070 whole entry): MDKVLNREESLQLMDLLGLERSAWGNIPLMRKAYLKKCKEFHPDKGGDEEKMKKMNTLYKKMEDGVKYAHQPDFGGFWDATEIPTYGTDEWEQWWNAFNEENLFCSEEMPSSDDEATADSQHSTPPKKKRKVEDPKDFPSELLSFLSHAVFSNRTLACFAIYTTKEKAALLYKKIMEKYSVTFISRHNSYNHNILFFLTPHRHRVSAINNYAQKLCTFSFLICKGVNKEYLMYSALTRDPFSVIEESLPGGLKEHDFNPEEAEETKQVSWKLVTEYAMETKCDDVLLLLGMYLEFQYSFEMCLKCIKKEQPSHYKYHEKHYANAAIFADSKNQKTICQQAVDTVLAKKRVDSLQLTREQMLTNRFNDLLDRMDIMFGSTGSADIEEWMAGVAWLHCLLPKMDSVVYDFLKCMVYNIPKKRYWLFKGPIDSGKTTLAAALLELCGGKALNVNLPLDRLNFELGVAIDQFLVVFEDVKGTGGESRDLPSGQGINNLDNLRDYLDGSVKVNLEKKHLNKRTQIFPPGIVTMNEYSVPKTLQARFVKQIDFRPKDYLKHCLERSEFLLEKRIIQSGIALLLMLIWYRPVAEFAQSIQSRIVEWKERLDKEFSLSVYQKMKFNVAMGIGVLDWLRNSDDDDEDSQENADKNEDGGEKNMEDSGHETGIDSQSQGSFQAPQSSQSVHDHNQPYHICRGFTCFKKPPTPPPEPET

Streptococcus = experiment: Group A Streptococcus viability loss, dose response, counter-screen for streptokinase expression inhibitor project, luminescence, BacTiterGlo (AID 1915); format: functional, organism-based;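 note: potency for reduction of bacterial viability or growth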
INS1 = experiment: beta cell apoptosis inhibitors, cytokine rescue, dose response, luminescence, retest (AID 449756); format: functional, cell-based; conditions: Rattus norvegicus, INS1;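 note: cell death triggered by IL-1 beta plus TNF-alpha plus IFN-gamma mixture; protective hits raise ATP signal compared with cytokine alone wells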
[19] = system: Streptococcus sp. 'group A'; experiment: growth inhibition of control SK(-) GAS strain, dose response, counter-screen for streptokinase expression inhibitor project, luminescence, kanamycin, BacTiterGlo, confirmation (AID 1900); format: functional, organism-based
Streptokinase A = biological target: T5, Streptokinase A (Streptococcus pyogenes serotype M1, UniProt P10520); experiment: S. pyogenes streptokinase expression inhibitors, potency, dose response, plasminogen activation absorbance, OD405 (AID 1914); format: functional, Streptococcus pyogenes M1 GAS;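 note: secreted streptokinase activity via plasminogen activation per viability signal from cell pellet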
T5 sequence (P10520 whole entry): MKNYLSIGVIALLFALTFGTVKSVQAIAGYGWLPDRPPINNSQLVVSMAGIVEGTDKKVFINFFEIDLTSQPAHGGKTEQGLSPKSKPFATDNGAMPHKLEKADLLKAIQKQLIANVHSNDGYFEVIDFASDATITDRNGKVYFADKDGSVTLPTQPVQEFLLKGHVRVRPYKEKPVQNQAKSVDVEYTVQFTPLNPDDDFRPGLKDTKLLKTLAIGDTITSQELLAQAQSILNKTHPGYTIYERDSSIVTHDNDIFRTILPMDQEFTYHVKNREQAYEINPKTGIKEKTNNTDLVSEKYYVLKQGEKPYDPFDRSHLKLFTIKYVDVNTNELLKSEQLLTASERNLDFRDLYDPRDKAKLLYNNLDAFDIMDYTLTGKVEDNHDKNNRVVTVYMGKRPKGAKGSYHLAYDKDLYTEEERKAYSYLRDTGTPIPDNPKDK

Cytochrome P450 2D6 = Cytochrome P450 2D6 (Homo sapiens, UniProt P10635);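 note: CYP2D6 member of a cytochrome P450 panel assay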
Sequence of Cytochrome P450 2D6 (P10635 whole entry): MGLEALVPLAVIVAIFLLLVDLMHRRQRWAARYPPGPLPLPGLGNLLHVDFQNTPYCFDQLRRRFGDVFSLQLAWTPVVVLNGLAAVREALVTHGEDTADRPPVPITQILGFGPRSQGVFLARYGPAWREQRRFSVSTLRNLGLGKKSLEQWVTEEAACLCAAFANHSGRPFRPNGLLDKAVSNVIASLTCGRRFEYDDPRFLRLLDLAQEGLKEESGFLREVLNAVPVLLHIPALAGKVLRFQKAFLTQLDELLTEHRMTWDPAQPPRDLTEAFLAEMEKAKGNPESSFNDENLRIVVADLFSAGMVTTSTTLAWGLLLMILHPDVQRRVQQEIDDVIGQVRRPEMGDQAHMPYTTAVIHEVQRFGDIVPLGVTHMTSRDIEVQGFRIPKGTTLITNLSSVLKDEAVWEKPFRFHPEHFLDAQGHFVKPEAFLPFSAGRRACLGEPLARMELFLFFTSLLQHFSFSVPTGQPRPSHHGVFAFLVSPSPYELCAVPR

Cytochrome P450 3A4 = Cytochrome P450 3A4 (Homo sapiens, UniProt P08684);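 note: CYP3A4 tested as one member of a cytochrome P450 panel screen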
Sequence of Cytochrome P450 3A4 (P08684 whole entry): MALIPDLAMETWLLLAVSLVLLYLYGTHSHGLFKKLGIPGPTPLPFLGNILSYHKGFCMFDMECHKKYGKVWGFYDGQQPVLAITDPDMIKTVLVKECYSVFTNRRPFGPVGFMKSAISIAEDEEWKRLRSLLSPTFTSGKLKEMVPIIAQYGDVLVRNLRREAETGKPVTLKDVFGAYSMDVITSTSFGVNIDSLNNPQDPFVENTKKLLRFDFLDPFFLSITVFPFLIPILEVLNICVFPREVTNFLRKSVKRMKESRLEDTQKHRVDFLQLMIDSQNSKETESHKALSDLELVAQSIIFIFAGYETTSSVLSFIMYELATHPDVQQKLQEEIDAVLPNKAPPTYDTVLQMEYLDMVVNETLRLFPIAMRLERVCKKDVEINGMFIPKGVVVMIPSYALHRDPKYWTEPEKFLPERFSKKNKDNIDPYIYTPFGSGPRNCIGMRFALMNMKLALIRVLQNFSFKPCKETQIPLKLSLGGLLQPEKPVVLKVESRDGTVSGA

H4 = experiment: Luminescence Cell-Based Dose Response HTS to Identify Activators of 5'UTR Stem-Loop Driven Prion Protein mRNA Translation in H4 Neuroglioblastoma Cells. [Related pubchem assays: 1829 (Project Summary), 1814 (Primary HTS)]; format: functional; conditions: Homo sapiens
[20] = Luminescence Cell-Based Dose Confirmation HTS to Identify Activators of 5'UTR Stem-Loop Driven Alpha-Synuclein mRNA Translation in H4 Neuroglioblastoma Cells. [Related pubchem assays: 1829 (Project Summary), 1814 (Primary HTS)]; format: functional
[21] = Luminescence Cell-Based Dose Response HTS to Identify Activators of Luciferase Translation or Activity in H4 […] Cells. [Related pubchem assays: 1829 (Project Summary), 1814 (Primary HTS)]; format: functional

Sequence of Cytochrome P450 2C9 (P11712 whole entry): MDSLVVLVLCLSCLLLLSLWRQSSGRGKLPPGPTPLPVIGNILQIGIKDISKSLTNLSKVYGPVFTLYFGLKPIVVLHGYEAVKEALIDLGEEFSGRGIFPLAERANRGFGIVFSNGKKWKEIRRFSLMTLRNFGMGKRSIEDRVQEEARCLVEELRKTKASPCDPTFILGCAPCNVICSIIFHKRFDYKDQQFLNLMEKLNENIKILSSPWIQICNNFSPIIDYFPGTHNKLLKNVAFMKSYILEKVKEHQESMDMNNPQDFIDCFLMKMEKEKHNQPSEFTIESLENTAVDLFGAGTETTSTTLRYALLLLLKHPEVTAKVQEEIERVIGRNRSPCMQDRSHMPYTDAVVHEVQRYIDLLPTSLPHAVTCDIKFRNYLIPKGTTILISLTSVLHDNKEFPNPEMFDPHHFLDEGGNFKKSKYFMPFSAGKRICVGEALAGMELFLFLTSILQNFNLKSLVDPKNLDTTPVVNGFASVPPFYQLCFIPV

## CN1[C@@H]2CC[C@H]1CC(O)C2 (some centres not stated)
Cytochrome P450 2C9
  AC50: inconclusive

## CC(C)(C)CN1CCNC[C@H]1Cc1cccc2ccccc12
[1]
  IC50: > 20 µM (inactive)

## Fc1cccc(Cl)c1CSc1nc[nH]n1
Cytochrome P450 2C9
  AC50: inconclusive
Cytochrome P450 2C19
  AC50: 39.8 µM (inconclusive)
Cytochrome P450 1A2
  AC50: 10 µM (inconclusive)

## Cc1cc(-c2cn3ccccc3n2)c(C)n1-c1ccccc1
[2]
  EC50: > 30 µM (not active)
[3]
  EC50: 1.43 µM (active)
[4]
  EC50: 7.5 µM (active)

## CN(C)CC/C=C1\c2ccc(F)cc2Sc2cc(F)c(Cl)cc21
[5]
  EC50: > 120 µM (not active)
[6]
  AC50: 9.75 µM (active)
[7]
  EC50: 45.6 µM (active)
[8]
  EC50: 12.9 µM (active)

## O=C(CCCCCN1C(=O)c2ccccc2C1=O)NCCc1nc2ccccc2[nH]1
[1]
  IC50: > 20 µM (inactive)

## Cc1cccc(C)c1N1CCc2c[nH]nc21
[4]
  EC50: 7.5 µM (active)

## Cc1cc(C)c2nc(NCCCNC(=S)NCCCN(C)C)c(C#N)cc2c1
[6]
  AC50: 7.63 µM (active)
[1]
  IC50: > 20 µM (inactive)

## C[C@H](CO)N1C[C@H](C)[C@H](CN(C)S(=O)(=O)c2ccc(F)cc2)Oc2ncc(/C=C/c3ccccc3)cc2C1=O
[9]
  AC50: 16.5 µM (active)
[10]
  AC50: 28.3 µM (active)
[11]
  AC50: 13.9 µM (active)

## COc1ccc2c3c(n(C)c2c1)[C@@H](CO)N(C(=O)Nc1ccc(F)cc1)CC31CCN(Cc2cccnc2)CC1
[12]
  AC50: 0.727 µM (active)
[13]
  AC50: 1.37 µM (active)
[14]
  AC50: 1.12 µM (active)
[15]
  AC50: 0.819 µM (active)
[16]
  AC50: 31.7 µM (active)

## CCOC(=O)C(C)Sc1nc(-c2cccs2)ccc1C#N (configuration not stated)
[17]
  CC50: 38.9 µM (active)

## c1ccc(CN2CCN(c3nc(NCc4ccco4)c4ccccc4n3)CC2)cc1
[17]
  CC50: 24.4 µM (active)
[18]
  AC50: 3.34 µM (active)

## CC(C)(CCc1nc2ccccc2[nH]1)C(=O)O
Cytochrome P450 2C9
  AC50: inconclusive

## COc1cnc(-c2ccccn2)nc1Oc1ccc(Cl)c2ccccc12
[17]
  CC50: 16.9 µM (active)
Large T antigen
  IC50: 7.48 µM (active)
Streptococcus
  EC50: 20.1 µM (inconclusive)
INS1
  AC50: 4.86 µM (active)
[19]
  EC50: 1.77 µM (active)
Streptokinase A
  EC50: > 150 µM (not active)

## CCOc1ccc2nc(SCc3ccccc3C#N)sc2c1
Cytochrome P450 2D6
  AC50: 17.8 µM (inconclusive)
Cytochrome P450 3A4
  AC50: 12.6 µM (inconclusive)
H4
  EC50: 0.7 µM (active)
[20]
  EC50: 1.1 µM (active)
Cytochrome P450 2C9
  AC50: inconclusive
[21]
  EC50: 0.884 µM (active)

## Cc1ccc(S(=O)(=O)O/N=C2/CCCc3occc32)cc1
Cytochrome P450 2C9
  AC50: inconclusive
Cytochrome P450 2C19
  AC50: 35.5 µM (inconclusive)

## O/N=C/c1ccccc1Oc1ccc(Cl)cc1
[4]
  EC50: 6.68 µM (active)

## O=C(C1CCN(S(=O)(=O)c2cccc3cccnc23)CC1)N1CCN(c2ccccn2)CC1
Cytochrome P450 2C9
  AC50: inconclusive
Cytochrome P450 2C19
  AC50: 7.08 µM (inconclusive)
Cytochrome P450 1A2
  AC50: 20 µM (inconclusive)

## O=C(CSc1nc2nncc-2c(O)n1-c1ccccc1Br)NCc1ccccc1Cl
[4]
  EC50: 2.99 µM (active)
